The values that follow are results of earlier work, collected in patent US10399716B2, “Personal care compositions and hangers” (The Procter & Gamble Company, priority 2014, dated 2019).

Consider `OCc1ccccc1` [benzyl Alcohol], for which the “Log (water Solubility in mol/L)” value is −0.47 log mol/L.
For `OCCOc1ccccc1` [Phenoxyethanol], the “Log (water Solubility in mol/L)” value is reported as −0.64 log mol/L.
With `C/C=C/C=C/C(=O)O` [sorbic acid], the “Log (water Solubility in mol/L)” value is reported as −0.33 log mol/L.
Regarding `OCCc1ccccc1` [phenethyl alcohol], the “Log (water Solubility in mol/L)” value was −0.83 log mol/L.
`C=CCCCCCCCCC(=O)O` [Undecylenic Acid]: the “Log (water Solubility in mol/L)” value is recorded as −3.15 log mol/L.
Regarding `O=C(O)c1ccccc1O` [Salicylic acid], the “Log (water Solubility in mol/L)” value is on record as −1.41 log mol/L.
With `CCOC(=O)c1ccc(O)cc1` [ethyl paraben], the “Log (water Solubility in mol/L)” value is −1.91 log mol/L.
Turning to `Oc1cc(Cl)ccc1Oc1ccc(Cl)cc1Cl` [Triclosan], the “Log (water Solubility in mol/L)” value is listed as −2.46 log mol/L.
For the compound `CCCCCCC(O)CO` (stereo not drawn) [caprylyl glycol], the “Log (water Solubility in mol/L)” value is given as −3.08 log mol/L.
